Data on one molecule can be found in article PMC6130513, “In vitro inhibitory effects of Friedelin on human liver cytochrome P450 enzymes” (Pharmaceutical Biology, 2018).

As usually defined, the Ki is a dissociation constant, usually derived from enzyme kinetics or from competition with a known ligand. A high value points to weaker binding. By IC50 is commonly meant the concentration that inhibits the measured activity by half.

One series concerns the target T1, CYP2A6 (Homo sapiens, UniProt P11509).
T1 construct: from tissue; host or cells: human liver microsomes
T1 sequence (P11509 1-494): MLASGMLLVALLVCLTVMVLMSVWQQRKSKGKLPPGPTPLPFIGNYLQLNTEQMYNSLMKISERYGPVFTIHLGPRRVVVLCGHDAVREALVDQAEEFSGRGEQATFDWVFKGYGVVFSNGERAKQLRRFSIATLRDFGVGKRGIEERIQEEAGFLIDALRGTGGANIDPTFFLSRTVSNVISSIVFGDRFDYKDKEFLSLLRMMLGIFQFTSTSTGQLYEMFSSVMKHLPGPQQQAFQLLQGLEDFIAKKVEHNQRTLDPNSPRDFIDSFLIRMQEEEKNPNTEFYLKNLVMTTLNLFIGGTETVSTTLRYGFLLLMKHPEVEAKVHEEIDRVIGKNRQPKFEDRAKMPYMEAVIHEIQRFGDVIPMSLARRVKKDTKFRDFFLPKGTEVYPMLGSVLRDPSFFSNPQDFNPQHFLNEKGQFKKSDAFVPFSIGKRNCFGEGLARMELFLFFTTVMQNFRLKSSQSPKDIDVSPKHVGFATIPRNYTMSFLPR
The series is described as follows: CYP2A6 inhibition in pooled human liver microsomes (coumarin 7-hydroxylation). In kind it is in vitro ADME. As to conditions: Friedelin 100 μM, pooled HLMs. As for the experimental part: (§1) All incubations were performed in triplicate, and the mean values were utilized. The typical incubation systems contained 100 mM potassium phosphate buffer (pH 7.4), NADPH generating system (1 mM NADP^+, 10 mM glucose-6-phosphate, 1 U/mL of glucose-6-phosphate dehydrogenase, and 4 mM MgCl2), the appropriate concentration of HLMs, a corresponding probe substrate and Friedelin (or positive inhibitor for different probe reactions) in a final volume of 200 μL.
(§2) The concentration of Friedelin was 100 μM, and the positive inhibitor concentrations were as follows: 1 μM ketoconazole for CYP3A4, 10 μM furafylline for CYP1A2, 10 μM tranylcypromine for CYP2A6, 50 μM clomethiazole for CYP2E1, 10 μM quinidine for CYP2D6, 10 μM sulfaphenazole for CYP2C9, 50 μM tranylcypromine for CYP2C19, 5 μM montelukast for CYP2C8. Probe substrates, positive inhibitors (except for dextromethorphan and quinidine which were dissolved in water) and Friedelin were dissolved in methanol, with a final concentration of 1% (v/v) and 1% neat methanol was added to the incubations without inhibitor. […] The instrument used in this study were Agilent 1260 series instrument with DAD and FLD detector, and the quantitative assay for the corresponding metabolites was performed as previously reported (Lang et al. [2016]; Zhang et al. [2017]). […]

For the next series, the target named is T2, CYP1A2 (Homo sapiens, UniProt P05177).
T2 construct: from tissue; host or cells: human liver microsomes
T2 sequence (P05177 1-516): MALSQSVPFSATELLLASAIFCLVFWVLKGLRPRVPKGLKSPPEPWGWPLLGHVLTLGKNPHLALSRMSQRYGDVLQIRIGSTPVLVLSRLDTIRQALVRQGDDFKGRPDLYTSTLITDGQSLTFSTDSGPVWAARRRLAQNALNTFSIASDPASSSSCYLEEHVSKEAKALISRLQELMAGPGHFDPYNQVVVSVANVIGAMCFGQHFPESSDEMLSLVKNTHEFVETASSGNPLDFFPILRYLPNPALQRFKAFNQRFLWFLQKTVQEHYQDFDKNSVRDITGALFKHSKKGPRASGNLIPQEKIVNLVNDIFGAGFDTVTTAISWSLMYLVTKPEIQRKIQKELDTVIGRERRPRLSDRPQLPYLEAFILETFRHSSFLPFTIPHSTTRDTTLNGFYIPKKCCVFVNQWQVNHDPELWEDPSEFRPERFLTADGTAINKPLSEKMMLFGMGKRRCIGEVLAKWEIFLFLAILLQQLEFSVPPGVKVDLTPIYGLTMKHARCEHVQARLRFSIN
The experiment in a line: CYP1A2 inhibition in pooled human liver microsomes (phenacetin O-demethylation). It is filed as in vitro ADME. The settings on record: Friedelin 100 μM, pooled HLMs. As for the experimental part:
as §1, §2

The next series has as its target T3, CYP2C8 (Homo sapiens, UniProt P10632).
T3 construct: from tissue; host or cells: human liver microsomes
T3 sequence (P10632 1-490): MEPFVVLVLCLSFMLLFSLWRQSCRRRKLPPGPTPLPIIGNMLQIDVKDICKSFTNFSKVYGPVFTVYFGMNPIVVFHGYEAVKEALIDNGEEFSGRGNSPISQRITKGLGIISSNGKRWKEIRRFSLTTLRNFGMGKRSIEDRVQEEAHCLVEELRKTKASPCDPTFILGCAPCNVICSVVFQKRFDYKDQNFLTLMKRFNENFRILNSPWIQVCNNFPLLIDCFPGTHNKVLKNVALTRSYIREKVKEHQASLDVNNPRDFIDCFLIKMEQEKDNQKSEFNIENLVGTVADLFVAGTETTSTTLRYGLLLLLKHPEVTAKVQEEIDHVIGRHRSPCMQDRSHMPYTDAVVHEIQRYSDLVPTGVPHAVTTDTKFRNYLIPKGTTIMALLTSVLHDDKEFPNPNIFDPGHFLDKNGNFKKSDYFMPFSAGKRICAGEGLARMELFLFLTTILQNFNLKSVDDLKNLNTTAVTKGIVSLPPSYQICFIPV
The series is described as follows: CYP2C8 inhibition in pooled human liver microsomes (paclitaxel 6α-hydroxylation). It is filed as in vitro ADME. As to conditions: Friedelin 100 μM, pooled HLMs. The procedure:
as §1, §2
Background: Liver microsomes are a subcellular fraction often used to study metabolism.

In series [1] the target is T4, CYP3A4 (Homo sapiens, UniProt P08684).
T4 construct: effects of Friedelin on CYP3A4 catalyzed reactions (testosterone 6β-hydroxylation) in pooled HLM; from tissue; host or cells: pooled human liver microsomes
The series is described as follows: CYP3A4 inhibition in pooled human liver microsomes (testosterone 6β-hydroxylation). It is filed as in vitro ADME. As to conditions: pooled HLMs. As for the experimental part:
as §1
(§3) The concentration of Friedelin was 100 μM, and the positive inhibitor concentrations were as follows: 1 μM ketoconazole for CYP3A4, 10 μM furafylline for CYP1A2, 10 μM tranylcypromine for CYP2A6, 50 μM clomethiazole for CYP2E1, 10 μM quinidine for CYP2D6, 10 μM sulfaphenazole for CYP2C9, 50 μM tranylcypromine for CYP2C19, 5 μM montelukast for CYP2C8. Probe substrates, positive inhibitors (except for dextromethorphan and quinidine which were dissolved in water) and Friedelin were dissolved in methanol, with a final concentration of 1% (v/v) and 1% neat methanol was added to the incubations without inhibitor. There was a 3 min preincubation period (at 37 °C) before the reaction was initiated by adding an NADPH-generating system. The reaction was terminated by adding a 100 μL acetonitrile (10% trichloroacetic acid for CYP2A6) internal standard mix, and the solution was placed on ice. The mixture was centrifuged at 12,000 rpm for 10 min, and an aliquot (50 μL) of the supernatant was transferred for HPLC analysis. The instrument used in this study were Agilent 1260 series instrument with DAD and FLD detector, and the quantitative assay for the corresponding metabolites was performed as previously reported (Lang et al. [2016]; Zhang et al. [2017]).
(§4) Friedelin (100 μM) was used to initially screen for its direct inhibitory effects toward different human CYP isoforms. […] Ki values were obtained by incubating various concentrations of different probe substrates (20–100 μM testosterone, 25–200 μM chlorzoxazone) in the presence of 0–50 μM Friedelin.
(§5) The enzyme kinetic parameters for the probe reaction were estimated from the best fit line using least-squares linear regression of the inverse substrate concentration versus the inverse velocity (Lineweaver–Burk plots), and the mean values were used to calculate Vmax and Km. Inhibition data from the experiments that were conducted using multiple compound concentrations were represented by Dixon plots, and inhibition constant (Ki) values were calculated using nonlinear regression according to the following equation: v=(VmaxS)/(Km(1+I/Ki)+S), where I is the concentration of the compound, Ki is the inhibition constant, S is the concentration of the substrate, and Km is the substrate concentration at half the maximum velocity (Vmax) of the reaction. […]

Another series deals with T5, CYP2C9 (Homo sapiens, UniProt P11712).
T5 construct: from tissue; host or cells: human liver microsomes
The experiment in a line: CYP2C9 inhibition in pooled human liver microsomes (diclofenac 4'-hydroxylation). The settings on record: Friedelin 100 μM, pooled HLMs. It is filed as in vitro ADME. As for the experimental part:
as §1, §2

The target in series [2] is T6, CYP2E1 (Homo sapiens, UniProt P05181).
T6 construct: effects of Friedelin on CYP2E1 catalyzed reactions (chlorzoxazone 6-hydroxylation) in pooled HLM; from tissue; host or cells: pooled human liver microsomes
The series is described as follows: CYP2E1 inhibition in pooled human liver microsomes (chlorzoxazone 6-hydroxylation). In kind it is in vitro ADME. As to conditions: pooled HLMs. The procedure:
as §1, §3, §4, §5

The target in series [3] is T6, CYP2E1. The series is described as follows: Time-dependent inhibition study of CYP2E1 in human liver microsomes. In kind it is in vitro ADME. The settings on record: Friedelin 20 μM, 30 min preincubation with HLM and NADPH. As for the experimental part:
(§6) To determine whether Friedelin could inhibit the activity of CYP3A4 and 2E1 in a time-dependent manner, Friedelin (20 μM) was preincubated with HLMs (1 mg/mL) in the presence of an NADPH-generating system for 30 min at 37 °C. After incubation, an aliquot (20 μL) was transferred to another incubation tube (final volume 200 μL) containing an NADPH-generating system and probe substrates whose final concentrations were approximate to Km. Then, further incubations were performed to measure the residual activity. After being incubated for different time (0–30 min), the reactions were terminated by adding a 100 μL acetonitrile internal standard mix and then placed on ice; the corresponding metabolites were determined by HPLC.

For another series, the system named is P-glycoprotein (P-gp). Details: method as in Lee et al. [2017]. The settings on record: ref Lee et al. [2017]; cited from earlier work.
For the next series, the target named is T7, CYP2D6 (Homo sapiens, UniProt P10635).
T7 construct: from tissue; host or cells: human liver microsomes
The series is described as follows: CYP2D6 inhibition in pooled human liver microsomes (dextromethorphan O-demethylation). The settings on record: Friedelin 100 μM, pooled HLMs. It is filed as in vitro ADME. The procedure: as §1, §2

The target of series [4] is T4, CYP3A4. The experiment in a line: Time-dependent inhibition study of CYP3A4 in human liver microsomes. It is filed as in vitro ADME. As for the experimental part:
as §6, with “HPLC. To determine the Ki and kinact values for the inactivation of CYP3A4, the incubations were conducted using higher probe substrate concentrations (approximately 4-fold Km values) and various concentrations of Friedelin (0–50 μM) after different preincubation times (0–30 min), with a two-step incubation scheme, as described above.” for “HPLC.”

Another series has as its target T8, CYP2C19 (Homo sapiens, UniProt P33261).
T8 construct: from tissue; host or cells: human liver microsomes
The series is described as follows: CYP2C19 inhibition in pooled human liver microsomes (S-mephenytoin 4-hydroxylation). The settings on record: Friedelin 100 μM, pooled HLMs. It is filed as in vitro ADME. The procedure: as §1, §2

T6 sequence (P05181 whole entry): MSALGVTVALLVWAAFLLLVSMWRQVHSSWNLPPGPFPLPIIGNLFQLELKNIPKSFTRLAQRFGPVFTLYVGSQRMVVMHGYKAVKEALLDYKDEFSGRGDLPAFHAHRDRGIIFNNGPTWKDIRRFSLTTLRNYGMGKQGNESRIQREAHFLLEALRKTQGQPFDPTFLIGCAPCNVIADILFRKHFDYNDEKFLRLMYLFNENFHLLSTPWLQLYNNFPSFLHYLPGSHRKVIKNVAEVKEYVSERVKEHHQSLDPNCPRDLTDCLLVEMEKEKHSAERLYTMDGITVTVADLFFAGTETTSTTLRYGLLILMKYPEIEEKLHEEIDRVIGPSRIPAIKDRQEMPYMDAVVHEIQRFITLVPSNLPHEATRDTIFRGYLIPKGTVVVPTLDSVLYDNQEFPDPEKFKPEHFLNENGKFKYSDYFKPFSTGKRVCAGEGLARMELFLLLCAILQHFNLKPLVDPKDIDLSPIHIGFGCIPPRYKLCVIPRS
T4 sequence (P08684 whole entry): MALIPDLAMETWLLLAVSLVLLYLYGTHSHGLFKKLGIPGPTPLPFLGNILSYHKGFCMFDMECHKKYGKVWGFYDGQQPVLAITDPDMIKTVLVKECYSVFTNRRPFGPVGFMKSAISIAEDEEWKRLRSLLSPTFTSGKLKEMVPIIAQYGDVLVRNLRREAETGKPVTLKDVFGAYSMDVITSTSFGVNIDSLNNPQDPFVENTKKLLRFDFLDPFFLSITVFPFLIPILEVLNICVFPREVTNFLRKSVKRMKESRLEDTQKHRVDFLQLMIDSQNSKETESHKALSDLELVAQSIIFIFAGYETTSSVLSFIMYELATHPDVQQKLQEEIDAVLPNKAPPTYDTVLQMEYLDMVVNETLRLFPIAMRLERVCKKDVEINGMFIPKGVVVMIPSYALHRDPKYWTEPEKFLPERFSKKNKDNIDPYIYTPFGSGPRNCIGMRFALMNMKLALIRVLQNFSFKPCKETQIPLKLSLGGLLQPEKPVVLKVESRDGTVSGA
T5 sequence (P11712 whole entry): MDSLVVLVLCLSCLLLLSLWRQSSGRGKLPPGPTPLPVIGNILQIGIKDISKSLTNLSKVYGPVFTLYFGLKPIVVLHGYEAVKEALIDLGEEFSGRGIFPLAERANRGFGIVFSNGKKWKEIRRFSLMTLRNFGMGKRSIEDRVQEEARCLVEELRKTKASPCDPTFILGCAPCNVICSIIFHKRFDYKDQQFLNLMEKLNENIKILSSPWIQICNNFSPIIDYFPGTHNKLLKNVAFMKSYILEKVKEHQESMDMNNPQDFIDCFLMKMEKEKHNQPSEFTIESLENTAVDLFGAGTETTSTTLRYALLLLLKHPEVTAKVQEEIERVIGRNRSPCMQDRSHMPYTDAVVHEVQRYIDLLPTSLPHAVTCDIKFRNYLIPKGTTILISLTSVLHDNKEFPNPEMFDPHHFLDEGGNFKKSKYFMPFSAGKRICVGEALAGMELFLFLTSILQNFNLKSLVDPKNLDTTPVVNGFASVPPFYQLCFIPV
T7 sequence (P10635 whole entry): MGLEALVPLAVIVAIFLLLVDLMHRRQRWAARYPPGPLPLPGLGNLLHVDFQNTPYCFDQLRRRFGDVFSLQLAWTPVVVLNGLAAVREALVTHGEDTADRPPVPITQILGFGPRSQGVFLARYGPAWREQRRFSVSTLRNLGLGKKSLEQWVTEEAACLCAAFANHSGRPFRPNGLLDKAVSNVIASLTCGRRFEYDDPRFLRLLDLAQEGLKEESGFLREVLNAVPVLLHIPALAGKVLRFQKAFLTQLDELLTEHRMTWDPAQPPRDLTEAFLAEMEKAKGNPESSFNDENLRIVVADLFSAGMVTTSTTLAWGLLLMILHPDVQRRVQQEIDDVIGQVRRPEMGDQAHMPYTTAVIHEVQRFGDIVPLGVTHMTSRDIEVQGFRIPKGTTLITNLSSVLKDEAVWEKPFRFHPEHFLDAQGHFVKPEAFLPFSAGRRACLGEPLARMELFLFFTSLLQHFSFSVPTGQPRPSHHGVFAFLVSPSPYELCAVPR
T8 sequence (P33261 whole entry): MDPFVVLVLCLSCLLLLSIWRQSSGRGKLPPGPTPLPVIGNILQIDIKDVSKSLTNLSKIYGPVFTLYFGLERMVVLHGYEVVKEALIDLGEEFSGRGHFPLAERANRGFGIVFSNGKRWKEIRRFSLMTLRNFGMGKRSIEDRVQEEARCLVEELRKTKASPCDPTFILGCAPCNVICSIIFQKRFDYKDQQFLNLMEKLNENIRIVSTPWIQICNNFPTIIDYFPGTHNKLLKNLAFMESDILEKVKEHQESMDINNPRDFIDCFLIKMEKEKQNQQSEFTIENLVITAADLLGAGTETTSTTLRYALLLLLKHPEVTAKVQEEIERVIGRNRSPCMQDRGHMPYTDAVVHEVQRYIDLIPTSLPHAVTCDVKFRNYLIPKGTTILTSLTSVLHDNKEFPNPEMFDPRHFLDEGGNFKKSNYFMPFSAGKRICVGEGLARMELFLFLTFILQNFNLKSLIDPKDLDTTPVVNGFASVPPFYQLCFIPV

Consider `C[C@H]1C(=O)CC[C@@H]2[C@]1(C)CC[C@H]1[C@@]2(C)CC[C@@]2(C)[C@@H]3CC(C)(C)CC[C@]3(C)CC[C@]12C` [Friedelin], for which the “Inhibition of CYP2A6 activity” value at CYP2A6 is listed as “could not inhibit”. For the same molecule, the “Inhibition of CYP1A2 activity” value on CYP1A2 is on record as “could not inhibit”. Moreover, the “Inhibition of CYP2C8 activity” value at CYP2C8 was “could not inhibit”. Also, at CYP3A4 [1] (Lineweaver–Burk plots), the “Mode of inhibition of CYP3A4” value is given as “noncompetitive”. Moreover, the activity at 100 μM turned out to be 7.5% on CYP3A4 [1] (human, pooled human liver microsomes, pH 7.4, probe testosterone (6β-hydroxylation), Friedelin 100 μM, testosterone 6β-hydroxylation, read-out: CYP3A4 activity, % of control activity) and 18.9% on CYP2E1 [2] (human, pooled human liver microsomes, pH 7.4, probe chlorzoxazone (6-hydroxylation), Friedelin 100 μM, chlorzoxazone 6-hydroxylation, read-out: CYP2E1 activity, % of control activity). Further, the Ki on CYP3A4 [1] (secondary Lineweaver–Burk plot, testosterone 20–100 μM) turned out to be 6.16 µM; at CYP2E1 [2] (secondary Lineweaver–Burk plot, chlorzoxazone 25–200 μM), 18 µM. The IC50 against CYP3A4 [1] (testosterone 6β-hydroxylation) was found to be 10.8 µM; against CYP2E1 [2] (chlorzoxazone 6-hydroxylation) it was 22.5 µM. The “Inhibition of CYP2C9 activity” value at CYP2C9 is recorded as “could not inhibit”. Moreover, the “Mode of inhibition of CYP2E1” value on CYP2E1 [2] (Lineweaver–Burk plots) was “competitive”. The “Time-dependent inhibition of CYP2E1 activity” value at CYP2E1 [3] was “not affected”. Further, the “Effect on ATPase activity of P-glycoprotein” value in the series with P-glycoprotein (P-gp) is “could suppress ATPase activity”. Also, the “Inhibition of CYP2D6 activity” value on CYP2D6 is “could not inhibit”. In addition, the “Time-dependent inhibition of CYP3A4 activity” value at CYP3A4 [4] (Friedelin 20 μM, 30 min preincubation with HLM and NADPH) is given as “decreased with the incubation time”. Also, the kinact/KI on CYP3A4 [4] (human, human liver microsomes, HLM, Friedelin 0–50 μM, preincubation 0–30 min with NADPH, read-out: Kinact/Ki for CYP3A4 inactivation (converted)) is 80.7 M⁻¹ s⁻¹. For the same molecule, on CYP3A4 [4] (saturating concentration of Friedelin incubated with HLM), the “CYP3A4 inactivated each minute (Kinact)” value is on record as “approximately 5.9%”. Also, on CYP2C19, the “Inhibition of CYP2C19 activity” value is listed as “could not inhibit”.
